From patent publication US7399786B2, “Derivatives of amino acids for treatment of obesity and related disorders” (Bexel Pharmaceuticals, Inc., priority 2005, dated 2008) come the findings set out here.

Experiment [1] is described as follows: High fat diet induced obesity (DIO) model. The class given is in vivo, C57BL/6J male mice. The conditions noted are these: DIO mice. On the procedure: Six week old C57BL/6J male mice were fed with high fat (60%) diet for 14 days. From day 15 onwards animals were treated with compound 9 at a dose of 50 mg/kg body weight or sibutramine (5 mg/kg bw) for 60 days. All the animals were dosed once daily during morning hours up to day 15. From day 16 to end of the study animals were dosed during evening hours.

For another experiment, the system named is IL-1β. The experiment in a line: IL-1β inhibition in hPBMC, LPS challenge, ELISA. It counts as cell-based, human. The conditions noted are these: 1 μM, LPS 100 ng/mL for 20 hours. The protocol: (§1) Cells (1×10^6/mL) were challenged with lipopolysaccharides (LPS) at a concentration of (100 ng/mL) for 20 hours. Cell supernatant was analyzed for the presence of IL-6 and IL-1β by antibody directed enzyme-linked immunoassay (R & D Systems, MN, USA).
A general note: An ELISA detects its analyte on a solid surface through an enzyme-linked reagent.

For the next experiment, the system named is IL-6. The experiment in a line: IL-6 inhibition in hPBMC, LPS challenge, ELISA. The conditions noted are these: 1 μM, LPS 100 ng/mL for 20 hours. It counts as cell-based, human. On the procedure: as §1
A further experiment relates to 3T3-L1 cells. The experiment in a line: PPARγ agonist induced adipocyte differentiation, Oil red O staining. It counts as cell-based, mouse. Conditions: 11 days. On the procedure:
Adipogenesis is defined as the production of fat laden adipocytes from fibroblast cells. All known PPARγ agonists induce adipogenesis after a long term of treatment. […] Cells were cultured for 11 days and every 48 h fresh drug was given while changing the media.

A short description of experiment [2]: Hypoglycemic effect in normal lean mice. It counts as in vivo, C57BL/6J lean male mice. Conditions: 50 mg/kg body weight for 60 days, measured every third day. On the procedure:
C57BL/6J lean male mice were fed, ad libitum, with laboratory rodent diet and purified water. Animals were treated with compound 9 at a dose of 50 mg/kg body weight for 60 days. Blood glucose was measured with an ACCUCHECK® glucose meter every third day during morning hours. No change in blood glucose levels was observed.

The subject of the next experiment is LPS induced NO. The experiment in a line: Inhibition of LPS induced NO in mouse peritoneal macrophages. It counts as cell-based. The conditions noted are these: compound 1 hour then LPS 10 μg/mL for 48 hrs. On the procedure: Mouse peritoneal macrophages were isolated by injecting warm PBS in the peritoneum and cells were tapped out with syringe and stored in a tube. After two washes with PBS, cells were plated in 96 well plates and incubated with compound 9 for 1 hour and then challenged with LPS (10 μg/mL) for 48 hrs. Supernatant was assayed for NO by ELISA kit (R&D Biosystems).

The mark [3] stands for this setting: 50 mg/kg for 60 days, compared to control animals.

For `CC(C)CC(N(C)C)C1(c2ccc(Cl)cc2)CCC1` (centres unmarked) [Sibutramine, reference compound], the bodyweight gain result in experiment [1] (5 mg/kg bw once daily for 60 days) is on record as “Reduced Bodyweight Gain”.

As for `CN(C)C(=O)[C@@H](N)Cc1ccc(Oc2ccc(CCC(=O)NO)cc2)cc1.Cl` [compound 9, L-2-amino-3-{4-[4-(2-hydroxycarbamoylethyl)-phenoxy]-phenyl}-N,N-dimethylpropionamide hydrochloride], in experiment [1] (50 mg/kg body weight once daily for 60 days), the body weight entry was “lowered body weight”. The oral glucose tolerance result in experiment [1] (50 mg/kg for 60 days) is “improved”. In addition, in experiment [1] (setting [3]), the “free fatty acid levels” value is “significantly lowered” and the triglyceride levels result is “significantly lowered”. Further, in the experiment with IL-1β, the “inhibition of IL-1β” value is given as “inhibition”. Besides, the “inhibition of IL-6” value in the experiment with IL-6 is on record as “inhibition”. The “adipocyte differentiation (adipogenesis), compound alone” value with 3T3-L1 cells (10 μM alone, Oil red O) is recorded as “not adipogenic”. In addition, in the experiment with 3T3-L1 cells (compound 10 μM mixed with rosiglitazone 1 μM), the “adipogenesis induced by PPARγ agonist, combined treatment” value is “blocks the adipogenesis process induced by PPARγ agonist”. For the same compound, in experiment [2], the blood glucose levels result is “No change”. Moreover, the NO production result in the experiment on LPS induced NO is given as “doses dependently inhibited NO production”.
